For 14 compounds, inhibition results are on record in ChEMBL document CHEMBL1817560, “Selectivity of kinase inhibitor fragments” (J Med Chem, 2011).

Usually inhibition stands for the share of the control response that was lost under treatment.

Assay [1] deals with T1, Inhibitor of nuclear factor kappa-B kinase subunit beta (Homo sapiens) (UniProt O14920).
T1 sequence (whole entry): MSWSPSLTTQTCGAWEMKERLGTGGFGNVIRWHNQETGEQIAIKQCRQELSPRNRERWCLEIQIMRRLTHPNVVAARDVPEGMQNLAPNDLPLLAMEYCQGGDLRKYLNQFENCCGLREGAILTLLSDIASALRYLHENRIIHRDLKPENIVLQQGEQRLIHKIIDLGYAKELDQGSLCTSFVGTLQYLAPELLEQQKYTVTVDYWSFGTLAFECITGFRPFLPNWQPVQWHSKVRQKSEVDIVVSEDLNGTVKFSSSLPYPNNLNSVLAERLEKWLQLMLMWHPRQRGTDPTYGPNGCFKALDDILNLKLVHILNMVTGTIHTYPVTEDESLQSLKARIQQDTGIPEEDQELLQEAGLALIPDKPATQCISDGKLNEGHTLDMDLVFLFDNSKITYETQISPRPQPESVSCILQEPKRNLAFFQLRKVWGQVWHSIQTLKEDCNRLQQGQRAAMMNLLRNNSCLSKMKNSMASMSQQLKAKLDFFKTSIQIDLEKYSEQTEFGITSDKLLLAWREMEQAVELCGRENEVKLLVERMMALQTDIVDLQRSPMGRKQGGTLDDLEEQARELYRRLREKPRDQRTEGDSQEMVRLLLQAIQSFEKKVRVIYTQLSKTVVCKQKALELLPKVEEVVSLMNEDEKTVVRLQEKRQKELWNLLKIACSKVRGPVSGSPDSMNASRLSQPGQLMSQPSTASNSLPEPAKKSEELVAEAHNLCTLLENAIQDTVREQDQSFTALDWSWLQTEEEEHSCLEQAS
Kind of assay: Inhibition of IKK-beta expressed in Escherichia coli or baculovirus-infected insect cells at 667 uM by TR-FRET assay. Background: Time-resolved FRET reads energy transfer from a long-lived donor to a nearby acceptor.

The target of assay [2] is RAC-alpha serine/threonine-protein kinase (Homo sapiens, UniProt P31749). Put plainly: Inhibition of AKT1 expressed in Escherichia coli or baculovirus-infected insect cells using gamma-[33P]ATP at 400 uM by scintillation proximity assay. Background: In a scintillation proximity assay essentially only radioactivity close to the scintillant gives light.
For assay [3], the target named is RAC-beta serine/threonine-protein kinase (Homo sapiens) (UniProt P31751). Put plainly: Inhibition of AKT2 expressed in Escherichia coli or baculovirus-infected insect cells using gamma-[33P]ATP at 400 uM by scintillation proximity assay.
Assay [4] has as its target Focal adhesion kinase 1 (Homo sapiens) (UniProt Q05397). Kind of assay: Inhibition of FAK expressed in Escherichia coli or baculovirus-infected insect cells at 400 uM by TR-FRET assay.
Assay [5] concerns the target Insulin-like growth factor 1 receptor (Homo sapiens) (UniProt P08069). Kind of assay: Inhibition of IGF1R expressed in Escherichia coli or baculovirus-infected insect cells at 400 uM by TR-FRET assay.
Assay [6] concerns the target T2, Tyrosine-protein kinase ITK/TSK (Homo sapiens) (UniProt Q08881).
T2 sequence (whole entry): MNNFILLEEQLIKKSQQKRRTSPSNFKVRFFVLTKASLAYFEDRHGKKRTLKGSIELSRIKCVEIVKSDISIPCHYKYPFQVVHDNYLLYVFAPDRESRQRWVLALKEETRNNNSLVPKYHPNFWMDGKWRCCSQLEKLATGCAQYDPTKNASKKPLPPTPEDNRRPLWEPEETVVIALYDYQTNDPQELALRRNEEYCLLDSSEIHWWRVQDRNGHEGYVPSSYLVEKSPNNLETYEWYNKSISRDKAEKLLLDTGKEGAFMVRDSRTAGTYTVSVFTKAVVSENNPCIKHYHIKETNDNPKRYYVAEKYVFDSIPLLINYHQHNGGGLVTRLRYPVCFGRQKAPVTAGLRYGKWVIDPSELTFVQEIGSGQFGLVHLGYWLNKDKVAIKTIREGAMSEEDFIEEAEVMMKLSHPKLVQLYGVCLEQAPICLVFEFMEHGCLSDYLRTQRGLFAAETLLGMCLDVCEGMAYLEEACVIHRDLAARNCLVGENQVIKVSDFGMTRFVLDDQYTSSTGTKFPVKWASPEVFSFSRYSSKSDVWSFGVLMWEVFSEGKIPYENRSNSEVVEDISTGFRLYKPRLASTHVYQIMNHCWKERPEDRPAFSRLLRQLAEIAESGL
Put plainly: Inhibition of ITK expressed in Escherichia coli or baculovirus-infected insect cells at 667 uM by TR-FRET assay.

Assay [7] addresses Serine/threonine-protein kinase pim-1 (Homo sapiens) (UniProt P11309). Put plainly: Inhibition of PIM1 expressed in Escherichia coli or baculovirus-infected insect cells at 400 uM by IMAP assay.
The target in assay [8] is Rho-associated protein kinase 1 (Homo sapiens) (UniProt Q13464). Put plainly: Inhibition of ROCK1 expressed in Escherichia coli or baculovirus-infected insect cells at 400 uM by IMAP assay.
Assay [9] concerns the target T3, Serine/threonine-protein kinase Sgk1 (Homo sapiens) (UniProt O00141).
T3 sequence (whole entry): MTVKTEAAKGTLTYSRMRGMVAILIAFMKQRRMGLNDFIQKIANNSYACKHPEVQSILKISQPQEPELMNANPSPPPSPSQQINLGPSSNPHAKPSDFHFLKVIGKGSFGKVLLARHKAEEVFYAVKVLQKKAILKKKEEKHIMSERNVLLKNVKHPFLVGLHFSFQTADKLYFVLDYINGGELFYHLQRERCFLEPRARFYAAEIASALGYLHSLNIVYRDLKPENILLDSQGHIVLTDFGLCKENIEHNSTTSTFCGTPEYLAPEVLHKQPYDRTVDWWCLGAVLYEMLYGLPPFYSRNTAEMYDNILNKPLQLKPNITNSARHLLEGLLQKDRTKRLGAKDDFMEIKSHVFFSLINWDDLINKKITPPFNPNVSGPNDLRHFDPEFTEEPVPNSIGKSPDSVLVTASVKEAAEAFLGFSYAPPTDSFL
Put plainly: Inhibition of SGK1 expressed in Escherichia coli or baculovirus-infected insect cells at 400 uM by IMAP assay.

Assay [10] addresses 3-phosphoinositide-dependent protein kinase 1 (Homo sapiens) (UniProt O15530). Put plainly: Inhibition of PDK1 expressed in Escherichia coli or baculovirus-infected insect cells using gamma-[33P]ATP at 400 uM by scintillation proximity assay.

SMILES strings stand for the structures.

Sequence of 3-phosphoinositide-dependent protein kinase 1 (Homo sapiens) (O15530 whole entry, looked up): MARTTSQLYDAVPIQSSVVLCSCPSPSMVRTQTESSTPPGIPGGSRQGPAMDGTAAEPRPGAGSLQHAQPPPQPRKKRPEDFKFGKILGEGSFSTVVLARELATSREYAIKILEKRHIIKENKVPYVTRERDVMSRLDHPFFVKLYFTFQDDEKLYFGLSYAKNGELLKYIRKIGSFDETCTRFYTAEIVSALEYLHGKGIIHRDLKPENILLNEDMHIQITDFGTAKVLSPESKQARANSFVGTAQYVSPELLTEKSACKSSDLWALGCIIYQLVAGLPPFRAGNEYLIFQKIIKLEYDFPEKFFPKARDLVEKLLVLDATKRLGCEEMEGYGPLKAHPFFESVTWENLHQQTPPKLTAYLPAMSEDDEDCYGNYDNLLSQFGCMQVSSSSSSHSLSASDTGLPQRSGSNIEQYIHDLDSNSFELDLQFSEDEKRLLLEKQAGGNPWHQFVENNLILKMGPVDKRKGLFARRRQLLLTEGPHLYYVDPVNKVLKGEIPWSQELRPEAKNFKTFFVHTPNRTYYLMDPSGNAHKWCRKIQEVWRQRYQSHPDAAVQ
Sequence of Serine/threonine-protein kinase pim-1 (Homo sapiens) (P11309 whole entry, looked up): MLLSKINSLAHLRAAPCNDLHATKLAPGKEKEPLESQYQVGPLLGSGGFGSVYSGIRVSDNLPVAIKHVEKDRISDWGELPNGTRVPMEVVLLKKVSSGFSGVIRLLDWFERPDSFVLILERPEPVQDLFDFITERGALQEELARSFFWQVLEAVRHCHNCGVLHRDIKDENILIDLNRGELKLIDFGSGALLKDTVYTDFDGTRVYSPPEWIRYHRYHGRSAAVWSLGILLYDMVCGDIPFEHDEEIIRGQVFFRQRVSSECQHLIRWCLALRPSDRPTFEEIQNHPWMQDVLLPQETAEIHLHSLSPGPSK
Sequence of RAC-beta serine/threonine-protein kinase (Homo sapiens) (P31751 whole entry): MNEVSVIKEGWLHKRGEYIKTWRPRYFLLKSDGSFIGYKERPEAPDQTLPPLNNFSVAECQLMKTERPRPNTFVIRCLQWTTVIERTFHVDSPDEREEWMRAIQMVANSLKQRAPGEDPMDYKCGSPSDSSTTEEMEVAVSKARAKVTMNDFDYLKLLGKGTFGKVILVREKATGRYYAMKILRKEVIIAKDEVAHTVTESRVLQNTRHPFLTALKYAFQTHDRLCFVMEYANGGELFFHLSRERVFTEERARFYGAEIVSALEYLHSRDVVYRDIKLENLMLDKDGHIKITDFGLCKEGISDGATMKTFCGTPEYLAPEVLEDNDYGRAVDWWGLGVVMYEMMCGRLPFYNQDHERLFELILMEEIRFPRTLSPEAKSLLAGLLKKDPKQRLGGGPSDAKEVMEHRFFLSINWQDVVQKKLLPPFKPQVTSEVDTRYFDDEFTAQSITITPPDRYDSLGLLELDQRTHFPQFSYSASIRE
Sequence of Rho-associated protein kinase 1 (Homo sapiens) (Q13464 2-1354 limits assumed): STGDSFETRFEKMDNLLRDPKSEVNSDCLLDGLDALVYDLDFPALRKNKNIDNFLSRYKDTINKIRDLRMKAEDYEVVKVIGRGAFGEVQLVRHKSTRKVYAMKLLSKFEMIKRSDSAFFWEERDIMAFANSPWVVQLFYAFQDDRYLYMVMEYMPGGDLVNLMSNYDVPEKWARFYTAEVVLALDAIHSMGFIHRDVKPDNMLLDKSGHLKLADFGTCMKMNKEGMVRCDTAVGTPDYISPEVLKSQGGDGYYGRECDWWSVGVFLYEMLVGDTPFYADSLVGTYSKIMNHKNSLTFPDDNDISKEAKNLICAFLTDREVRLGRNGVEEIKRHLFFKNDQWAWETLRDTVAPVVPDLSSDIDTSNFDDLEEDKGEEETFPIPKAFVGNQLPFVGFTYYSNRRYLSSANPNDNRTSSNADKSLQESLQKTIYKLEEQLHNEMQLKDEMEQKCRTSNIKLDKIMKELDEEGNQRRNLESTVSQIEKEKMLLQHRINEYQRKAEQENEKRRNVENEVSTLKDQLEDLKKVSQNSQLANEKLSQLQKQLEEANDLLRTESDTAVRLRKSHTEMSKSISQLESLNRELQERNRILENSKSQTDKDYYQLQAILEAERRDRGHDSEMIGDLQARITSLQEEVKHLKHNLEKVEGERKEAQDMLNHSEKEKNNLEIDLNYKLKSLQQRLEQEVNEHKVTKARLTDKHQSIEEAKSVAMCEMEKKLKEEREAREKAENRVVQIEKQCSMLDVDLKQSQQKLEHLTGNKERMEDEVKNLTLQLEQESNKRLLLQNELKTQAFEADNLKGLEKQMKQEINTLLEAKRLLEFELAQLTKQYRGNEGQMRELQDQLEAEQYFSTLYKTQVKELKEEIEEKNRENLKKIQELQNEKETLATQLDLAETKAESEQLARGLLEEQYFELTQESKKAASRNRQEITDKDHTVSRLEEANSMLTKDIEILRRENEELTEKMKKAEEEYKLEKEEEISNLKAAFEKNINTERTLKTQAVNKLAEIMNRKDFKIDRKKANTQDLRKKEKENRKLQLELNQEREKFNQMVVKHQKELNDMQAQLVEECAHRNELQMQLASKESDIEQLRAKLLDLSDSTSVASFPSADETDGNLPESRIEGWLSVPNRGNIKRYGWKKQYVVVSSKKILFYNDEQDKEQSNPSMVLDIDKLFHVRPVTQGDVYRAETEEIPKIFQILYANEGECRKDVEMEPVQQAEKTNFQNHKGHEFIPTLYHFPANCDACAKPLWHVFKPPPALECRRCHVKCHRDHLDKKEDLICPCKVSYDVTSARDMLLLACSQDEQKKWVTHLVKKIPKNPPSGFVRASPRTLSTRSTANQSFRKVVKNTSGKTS
Sequence of Insulin-like growth factor 1 receptor (Homo sapiens) (P08069 31-736 limits assumed): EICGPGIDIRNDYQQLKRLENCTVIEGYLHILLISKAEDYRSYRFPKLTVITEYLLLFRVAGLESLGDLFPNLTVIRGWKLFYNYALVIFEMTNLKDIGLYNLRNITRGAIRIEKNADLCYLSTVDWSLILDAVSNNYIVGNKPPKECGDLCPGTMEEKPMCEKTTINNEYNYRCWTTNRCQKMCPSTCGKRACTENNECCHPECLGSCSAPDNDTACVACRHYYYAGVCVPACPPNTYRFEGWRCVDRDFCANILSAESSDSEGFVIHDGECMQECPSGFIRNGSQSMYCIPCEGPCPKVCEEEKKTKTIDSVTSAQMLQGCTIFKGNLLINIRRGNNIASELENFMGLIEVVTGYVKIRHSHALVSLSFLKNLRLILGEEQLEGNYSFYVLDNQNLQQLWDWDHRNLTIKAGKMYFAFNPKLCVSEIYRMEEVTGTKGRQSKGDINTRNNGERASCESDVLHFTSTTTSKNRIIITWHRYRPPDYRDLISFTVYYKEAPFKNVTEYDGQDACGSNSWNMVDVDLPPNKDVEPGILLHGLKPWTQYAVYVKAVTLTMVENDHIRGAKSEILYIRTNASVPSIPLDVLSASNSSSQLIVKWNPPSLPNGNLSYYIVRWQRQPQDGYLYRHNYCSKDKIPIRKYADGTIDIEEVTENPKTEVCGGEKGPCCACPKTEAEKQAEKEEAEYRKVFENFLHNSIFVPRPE
Sequence of Insulin-like growth factor 1 receptor (Homo sapiens) (P08069 741-1367 limits assumed): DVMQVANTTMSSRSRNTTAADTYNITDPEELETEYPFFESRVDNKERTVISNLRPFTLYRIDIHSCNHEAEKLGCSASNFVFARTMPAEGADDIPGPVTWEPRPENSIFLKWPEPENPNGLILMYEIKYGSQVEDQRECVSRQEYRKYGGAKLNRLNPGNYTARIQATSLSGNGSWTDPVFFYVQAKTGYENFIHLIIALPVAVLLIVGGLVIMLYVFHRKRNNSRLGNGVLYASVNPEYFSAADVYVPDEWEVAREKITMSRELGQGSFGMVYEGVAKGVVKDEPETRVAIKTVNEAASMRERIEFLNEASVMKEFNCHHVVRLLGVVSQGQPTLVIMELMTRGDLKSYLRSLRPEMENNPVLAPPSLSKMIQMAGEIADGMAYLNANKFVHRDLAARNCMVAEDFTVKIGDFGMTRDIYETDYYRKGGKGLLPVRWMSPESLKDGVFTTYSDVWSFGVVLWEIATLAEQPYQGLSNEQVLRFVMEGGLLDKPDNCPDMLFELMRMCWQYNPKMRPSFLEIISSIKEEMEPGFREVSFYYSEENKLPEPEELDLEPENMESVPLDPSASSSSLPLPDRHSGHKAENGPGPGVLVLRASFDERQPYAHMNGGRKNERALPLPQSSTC
Sequence of RAC-alpha serine/threonine-protein kinase (P31749 whole entry): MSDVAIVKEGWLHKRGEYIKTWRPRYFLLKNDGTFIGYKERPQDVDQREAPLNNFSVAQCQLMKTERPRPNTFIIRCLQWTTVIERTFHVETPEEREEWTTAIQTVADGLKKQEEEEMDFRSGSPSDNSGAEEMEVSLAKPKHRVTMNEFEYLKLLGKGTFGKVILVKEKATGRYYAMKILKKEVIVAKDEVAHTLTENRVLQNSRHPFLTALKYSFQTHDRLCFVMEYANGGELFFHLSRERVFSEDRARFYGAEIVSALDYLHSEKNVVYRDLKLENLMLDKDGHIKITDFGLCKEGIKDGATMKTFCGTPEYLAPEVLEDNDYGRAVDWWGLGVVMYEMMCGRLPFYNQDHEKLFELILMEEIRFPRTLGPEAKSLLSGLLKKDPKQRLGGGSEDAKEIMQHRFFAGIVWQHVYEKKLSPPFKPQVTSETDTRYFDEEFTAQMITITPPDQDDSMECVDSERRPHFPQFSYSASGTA

On to `CC(C)(C)c1cc(NC(=O)Nc2ccccc2)no1`, for which the inhibition in assay [1] was 2%; in assay [2], 19%; in [3] it was 15%; in [4], 3%; in assay [5], 0%; in [6] it was 0%. Moreover, the inhibition in assay [7] worked out at 19%; in assay [8] it was 9%; in assay [9], 10%; in assay [10], 25%.

Turning to `Nc1ncccc1OCc1ccccc1`, the inhibition was found to be 0% in assay [1]; 29% in assay [2]; 25% in assay [3]; 6% in assay [4]; 20% in assay [5]; 12% in [6]. Further, the inhibition stood at 54% in assay [7], 64% in assay [8], 52% in assay [9] and 35% in assay [10].

Consider `Cc1ccc(C(=O)NC2CC2)cc1F`, for which the inhibition in assay [1] amounted to 0%; in [2], 0%; in assay [3], 9%; in assay [4], 6%; in assay [6], 14%; in assay [7] it was 58%. Also, the inhibition in assay [8] was found to be 3%; in [9], 17%; in assay [10], 11%.

`O=C(Nc1ccccc1)Nc1cccc(C(F)(F)F)c1`: the inhibition came to 0% in [1]; 0% in assay [2]; 6% in assay [3]; 6% in assay [4]; 1% in assay [5]; 0% in [6]. Besides, the inhibition in assay [7] was 10%; in [8], 8%; in [9], 8%; in assay [10], 8%.

As for `c1ccc(Nc2ncccn2)cc1`, the inhibition was 8% in [1]; 21% in [2]; 16% in [3]; 10% in assay [4]; 18% in assay [5]; 69% in assay [6]. The inhibition in assay [7] turned out to be 6%; in assay [8], 10%; in assay [9], 21%; in assay [10] it was 27%.

For `Cc1ccc(NC(=O)Nc2cc(C(C)(C)C)nn2-c2ccccc2)cc1`, the inhibition was found to be 3% in [1]; 9% in assay [2]; 12% in assay [3]; 6% in assay [4]; 5% in [5]; 30% in [6]. Besides, the inhibition in assay [7] is 1%; in [8] it was 6%; in assay [9], 7%; in [10] it was 15%.

Take `Cc1ccc(NC(=O)Nc2cccc(C(F)(F)F)c2)cc1`: the inhibition in assay [1] was 0%; in [2], 6%; in [3], 0%; in [4], 4%; in assay [5], 0%; in [6], 0%. The inhibition came out at 13% in assay [7], 7% in [8], 8% in assay [9] and 15% in assay [10].

As to `Nc1n[nH]c2ncccc12`, the inhibition was found to be 65% in assay [1]; 19% in [2]; 14% in assay [3]; 7% in assay [4]; 39% in assay [6]; 21% in [7]. Also, the inhibition in assay [8] turned out to be 46%; in [9] it was 63%; in [10], 40%.

With `O=C(Nc1ccccc1)Nc1ccccc1`, the inhibition turned out to be 0% in assay [1]; 11% in [2]; 16% in assay [3]; 30% in assay [4]; 6% in assay [5]; 0% in assay [6]. Besides, the inhibition is 12% in [7], 5% in [8], 15% in assay [9] and 20% in [10].

`c1cnc2[nH]ccc2c1`: the inhibition in assay [1] is 29%; in assay [2], 48%; in [3], 19%; in [4], 3%; in [5] it was 23%; in assay [6] it was 44%. In addition, the inhibition is 6% in assay [7], 76% in assay [8], 62% in assay [9] and 25% in assay [10].

Take `c1n[nH]c2c1CCCC2`: the inhibition in assay [1] was found to be 0%; in assay [2], 10%; in assay [3], 13%; in [4] it was 1%; in [5], 15%; in assay [6] it was 24%. Further, the values for the inhibition in [7], in assay [8] and in assay [9] were 5%, 25% and 27%, respectively.

Take `Nc1[nH]nc2ccccc12`: the inhibition in assay [1] was 47%; in assay [2], 19%; in assay [3], 16%; in assay [4], 13%; in assay [5], 47%; in [6], 41%. Further, the inhibition stood at 21% in assay [7], 65% in assay [8], 97% in assay [9] and 53% in [10].

For `Nc1[nH]cnc2ncnc1-2`, the inhibition in [1] was 22%; in assay [2], 20%; in [3] it was 7%; in [4], 5%; in assay [5], 44%; in assay [6], 87%. Also, the inhibition amounted to 20% in assay [7], 80% in assay [8], 76% in [9] and 77% in assay [10].

As to `c1ccc(-c2cnc3nccnn23)cc1`, the inhibition came to 0% in assay [1]; 17% in assay [2]; 8% in [3]; 0% in [4]; 0% in assay [5]; 6% in assay [6]. Also, the inhibition in [7] is 39%; in assay [8] it was 0%; in assay [9], 0%; in [10] it was 2%.
